The values below come from patent US9717775B2 (priority 2006, dated 2017).

For assay [1], the system named is CCI-induced mechanical hypersensitivity. Further details: species or system male Sprague-Dawley rats. As to conditions: rat, in vivo.
The target of the next assay is α1β1δε nAChR (muscle) (Homo sapiens, UniProt P02708+P11230+Q04844+Q07001). It counts as cell-based.
The target of a further assay is α9α10 nAChR (Rattus norvegicus, UniProt P43144+Q9JLB5). It counts as cell-based.

pIC50: −log10 of the molar value.

Sequence of α9α10 nAChR (P43144 26-479 limits assumed): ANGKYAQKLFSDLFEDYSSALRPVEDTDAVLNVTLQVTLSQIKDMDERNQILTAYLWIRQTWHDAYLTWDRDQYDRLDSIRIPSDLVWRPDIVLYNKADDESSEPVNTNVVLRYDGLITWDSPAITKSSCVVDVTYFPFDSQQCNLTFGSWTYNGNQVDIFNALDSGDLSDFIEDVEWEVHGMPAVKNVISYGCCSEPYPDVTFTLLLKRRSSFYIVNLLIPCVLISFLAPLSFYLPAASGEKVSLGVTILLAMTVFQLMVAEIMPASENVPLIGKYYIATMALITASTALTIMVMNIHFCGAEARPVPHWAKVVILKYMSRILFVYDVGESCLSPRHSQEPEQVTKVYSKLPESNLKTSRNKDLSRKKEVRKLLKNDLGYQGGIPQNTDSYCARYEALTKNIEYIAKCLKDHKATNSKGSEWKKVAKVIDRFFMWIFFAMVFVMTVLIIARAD
Sequence of α9α10 nAChR (Q9JLB5 25-447 limits assumed): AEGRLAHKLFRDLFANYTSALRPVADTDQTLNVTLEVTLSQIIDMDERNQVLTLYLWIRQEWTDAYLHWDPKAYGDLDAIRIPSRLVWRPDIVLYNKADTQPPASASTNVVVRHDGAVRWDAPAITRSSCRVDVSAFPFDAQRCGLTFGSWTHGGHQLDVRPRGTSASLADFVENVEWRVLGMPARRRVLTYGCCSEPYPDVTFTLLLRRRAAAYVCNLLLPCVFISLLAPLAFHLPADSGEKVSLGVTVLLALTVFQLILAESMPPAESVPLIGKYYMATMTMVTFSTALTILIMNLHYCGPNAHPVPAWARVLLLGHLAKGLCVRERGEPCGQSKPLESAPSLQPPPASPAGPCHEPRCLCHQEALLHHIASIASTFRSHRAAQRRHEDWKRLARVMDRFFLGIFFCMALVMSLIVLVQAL
Sequence of α1β1δε nAChR (muscle) (P02708 21-457 limits assumed): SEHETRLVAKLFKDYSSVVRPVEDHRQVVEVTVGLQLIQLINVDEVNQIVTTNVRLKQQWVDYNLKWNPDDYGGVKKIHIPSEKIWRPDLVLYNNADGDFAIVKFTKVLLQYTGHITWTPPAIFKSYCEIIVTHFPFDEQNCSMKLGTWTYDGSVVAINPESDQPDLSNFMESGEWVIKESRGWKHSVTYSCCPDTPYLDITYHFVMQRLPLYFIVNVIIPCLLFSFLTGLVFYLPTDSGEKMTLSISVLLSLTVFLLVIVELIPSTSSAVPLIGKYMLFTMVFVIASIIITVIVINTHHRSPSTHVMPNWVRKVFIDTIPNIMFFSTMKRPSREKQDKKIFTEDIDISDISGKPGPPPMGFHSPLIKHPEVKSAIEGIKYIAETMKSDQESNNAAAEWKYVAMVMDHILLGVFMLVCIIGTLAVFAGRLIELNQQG
Sequence of α1β1δε nAChR (muscle) (P11230 24-501 limits assumed): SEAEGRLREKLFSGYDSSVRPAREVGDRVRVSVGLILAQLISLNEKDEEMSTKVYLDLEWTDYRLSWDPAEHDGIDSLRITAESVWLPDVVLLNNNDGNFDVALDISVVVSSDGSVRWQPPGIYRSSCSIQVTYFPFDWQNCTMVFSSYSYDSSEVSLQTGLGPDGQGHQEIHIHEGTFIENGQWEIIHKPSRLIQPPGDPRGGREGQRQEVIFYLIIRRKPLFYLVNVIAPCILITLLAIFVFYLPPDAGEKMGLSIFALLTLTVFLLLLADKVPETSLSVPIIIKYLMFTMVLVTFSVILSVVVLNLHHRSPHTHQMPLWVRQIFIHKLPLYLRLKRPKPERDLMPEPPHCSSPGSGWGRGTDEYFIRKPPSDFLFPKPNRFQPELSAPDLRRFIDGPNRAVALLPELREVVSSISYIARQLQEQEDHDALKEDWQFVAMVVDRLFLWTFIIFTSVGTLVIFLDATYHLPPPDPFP
Sequence of α1β1δε nAChR (muscle) (Q07001 22-517 limits assumed): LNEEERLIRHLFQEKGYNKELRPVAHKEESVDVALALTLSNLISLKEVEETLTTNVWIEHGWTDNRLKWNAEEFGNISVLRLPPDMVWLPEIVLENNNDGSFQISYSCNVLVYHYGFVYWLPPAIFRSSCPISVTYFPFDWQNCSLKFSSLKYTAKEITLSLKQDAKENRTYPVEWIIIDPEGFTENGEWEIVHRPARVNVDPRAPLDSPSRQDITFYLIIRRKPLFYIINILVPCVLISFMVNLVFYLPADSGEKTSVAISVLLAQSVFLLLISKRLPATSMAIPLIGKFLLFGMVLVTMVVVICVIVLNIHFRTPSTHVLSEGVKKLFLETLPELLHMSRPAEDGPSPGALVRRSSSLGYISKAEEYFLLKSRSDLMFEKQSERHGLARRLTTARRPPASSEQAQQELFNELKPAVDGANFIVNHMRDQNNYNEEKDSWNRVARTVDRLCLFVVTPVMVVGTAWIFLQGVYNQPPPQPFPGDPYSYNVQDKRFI
Sequence of α1β1δε nAChR (muscle) (Q04844 21-493 limits assumed): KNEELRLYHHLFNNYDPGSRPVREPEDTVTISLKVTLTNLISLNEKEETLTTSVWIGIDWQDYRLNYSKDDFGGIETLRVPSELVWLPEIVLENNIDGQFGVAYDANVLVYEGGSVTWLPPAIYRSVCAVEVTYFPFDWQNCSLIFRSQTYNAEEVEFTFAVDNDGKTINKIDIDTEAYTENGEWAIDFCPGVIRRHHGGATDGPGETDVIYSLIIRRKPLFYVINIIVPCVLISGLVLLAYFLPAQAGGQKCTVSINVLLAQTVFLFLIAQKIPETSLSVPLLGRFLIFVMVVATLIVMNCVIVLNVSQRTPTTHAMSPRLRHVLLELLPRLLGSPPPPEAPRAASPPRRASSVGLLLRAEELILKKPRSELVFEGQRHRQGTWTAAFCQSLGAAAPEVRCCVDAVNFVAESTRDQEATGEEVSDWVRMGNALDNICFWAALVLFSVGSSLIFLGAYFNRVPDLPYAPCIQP

α-conotoxin RgIA: in assay [1], the “increase of paw withdrawal thresholds ipsilateral to sciatic nerve ligation” value was 65±17% and the “time to significant increase of PWT ipsilateral to CCI” value was in the range of 3 to 4 h. Further, at α1β1δε nAChR (muscle), the Hill slope (commonly the slope factor of the fitted curve) stood at 0.931±0.40 and the pIC50 (commonly the IC50 on a negative log10 scale, so that one unit is a factor of ten) is 4.79. On α9α10 nAChR, this substance gave a Hill slope of 1.13±0.11 and a negative logarithm of the IC50 (pIC50) of 8.32.
